In experiment [1] the target is T1, CDK9 (Homo sapiens, UniProt P50750).
T1 construct: endogenous in cells; host or cells: MDA-MB-231
The experiment is described as follows: CDK protein degradation activity (Western blotting), CDK9. The class given is cell-based. Conditions: MDA-MB-231 cells, 16 hours, Western blot. In short, it runs like this:
(§1)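 Protein levels were read by Western blot densitometry, tubulin serving as loading reference. Beforehand, MDA-MB-231 cells had been exposed for 16 hours to 100 nM, 1 μM or 10 μM compound, DMSO as control.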

Experiment [2] has as its target T2, CDK2 (Homo sapiens, UniProt P24941).
T2 construct: endogenous in cells; host or cells: MDA-MB-231
Briefly: CDK protein degradation activity (Western blotting), CDK2. The class given is cell-based. Conditions: MDA-MB-231 cells, 16 hours, Western blot. The procedure, abridged: as §1

T1 sequence (P50750 whole entry): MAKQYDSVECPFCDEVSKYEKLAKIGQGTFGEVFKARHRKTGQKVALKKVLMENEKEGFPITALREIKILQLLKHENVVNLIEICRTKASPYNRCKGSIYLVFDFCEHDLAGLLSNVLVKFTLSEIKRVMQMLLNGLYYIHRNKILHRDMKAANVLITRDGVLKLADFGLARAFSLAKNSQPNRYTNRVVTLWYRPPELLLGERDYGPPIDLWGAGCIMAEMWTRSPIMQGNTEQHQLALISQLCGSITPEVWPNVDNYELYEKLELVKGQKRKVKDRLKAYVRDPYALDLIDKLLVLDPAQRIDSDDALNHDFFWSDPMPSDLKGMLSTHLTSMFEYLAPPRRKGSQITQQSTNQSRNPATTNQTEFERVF

With `Cc1cccc(C(=O)N[C@H]2C[C@@H](n3cnc4c(NCc5cccc(N6CCN(CC7CCN(c8ccc9c(c8)C(=O)N([C@H]8CCC(=O)NC8=O)C9=O)CC7)CC6)c5)ncnc43)C2)n1` [Compound 137, N-((1s,3s)-3-(6-((3-(4-((1-(2-(2,6-dioxopiperidin-3-yl)-1,3-dioxoisoindolin-5-yl)piperidin-4-yl)methyl)piperazin-1-yl)benzyl)amino)-9H-purin-9-yl)cyclobutyl)-6-methylpicolinamide], in experiment [1], the “Enzyme degradation CDK9 (% remaining) @ 0.1 μM” value is 0/0/0%, the “Enzyme degradation CDK9 (% remaining) @ 1 μM” value is 0/0/0% and the “Enzyme degradation CDK9 (% remaining) @ 10 μM” value is given as 0/0/0%. Also, in experiment [2], the “Enzyme degradation CDK2 (% remaining) @ 0.1 μM” value stood at 30%, the “Enzyme degradation CDK2 (% remaining) @ 1 μM” value came out at 40% and the “Enzyme degradation CDK2 (% remaining) @ 10 μM” value is on record as 40%.
Consider `Cc1cccc(C(=O)NC2CC(n3cnc4c(NCCCN5CCN(C(=O)CNc6cccc7c6C(=O)N([C@@H]6CCC(=O)NC6=O)C7=O)CC5)ncnc43)C2)n1` (stereo partly drawn) [Compound 139, N-((1r,3r)-3-(6-((3-(4-((2-(2,6-dioxopiperidin-3-yl)-1,3-dioxoisoindolin-4-yl)glycyl)piperazin-1-yl)propyl)amino)-9H-purin-9-yl)cyclobutyl)-6-methylpicolinamide], for which, in experiment [1], the “Enzyme degradation CDK9 (% remaining) @ 0.1 μM” value stood at 80%, the “Enzyme degradation CDK9 (% remaining) @ 1 μM” value was 90% and the “Enzyme degradation CDK9 (% remaining) @ 10 μM” value stood at 70%. Moreover, in experiment [2], the “Enzyme degradation CDK2 (% remaining) @ 0.1 μM” value was 80%, the “Enzyme degradation CDK2 (% remaining) @ 1 μM” value came out at 90% and the “Enzyme degradation CDK2 (% remaining) @ 10 μM” value is given as 80%.
Consider `Cc1cccc(C(=O)N[C@H]2C[C@H](n3cnc4c(NCCCN5CCN(C(=O)CNc6ccc7c(c6)C(=O)N([C@@H]6CCC(=O)NC6=O)C7=O)CC5)ncnc43)C2)n1` [Compound 141, N-((1r,3r)-3-(6-((3-(4-((2-(2,6-dioxopiperidin-3-yl)-1,3-dioxoisoindolin-5-yl)glycyl)piperazin-1-yl)propyl)amino)-9H-purin-9-yl)cyclobutyl)-6-methylpicolinamide], for which, in experiment [1], the “Enzyme degradation CDK9 (% remaining) @ 0.1 μM” value turned out to be 90%, the “Enzyme degradation CDK9 (% remaining) @ 1 μM” value came to 80% and the “Enzyme degradation CDK9 (% remaining) @ 10 μM” value came out at 50%. Also, in experiment [2], the “Enzyme degradation CDK2 (% remaining) @ 0.1 μM” value was 70%, the “Enzyme degradation CDK2 (% remaining) @ 1 μM” value is listed as 50% and the “Enzyme degradation CDK2 (% remaining) @ 10 μM” value was 60%.
`Cc1cccc(C(=O)NC2CC(n3cnc4c(NCCCN5CCN(CC6CCN(C(=O)COc7cccc8c7C(=O)N([C@@H]7CCC(=O)NC7=O)C8=O)CC6)CC5)ncnc43)C2)n1` (stereo partly drawn) [Compound 142, N-((1r,3r)-3-(6-((3-(4-((1-(2-((2-(2,6-dioxopiperidin-3-yl)-1,3-dioxoisoindolin-4-yl)oxy)acetyl)piperidin-4-yl)methyl)piperazin-1-yl)propyl)amino)-9H-purin-9-yl)cyclobutyl)-6-methylpicolinamide]: in experiment [1], the “Enzyme degradation CDK9 (% remaining) @ 0.1 μM” value worked out at 70%, the “Enzyme degradation CDK9 (% remaining) @ 1 μM” value came to 0% and the “Enzyme degradation CDK9 (% remaining) @ 10 μM” value is 0%. Further, in experiment [2], the “Enzyme degradation CDK2 (% remaining) @ 0.1 μM” value is given as 80%, the “Enzyme degradation CDK2 (% remaining) @ 1 μM” value is given as 70% and the “Enzyme degradation CDK2 (% remaining) @ 10 μM” value is 50%.
Turning to `Cc1cccc(C(=O)NC2CC(n3cnc4c(NCCCN5CCN(CC6CCN(C(=O)CNc7cccc8c7C(=O)N([C@@H]7CCC(=O)NC7=O)C8=O)CC6)CC5)ncnc43)C2)n1` (stereo partly drawn) [Compound 143, N-((1r,3r)-3-(6-((3-(4-((1-((2-(2,6-dioxopiperidin-3-yl)-1,3-dioxoisoindolin-4-yl)glycyl)piperidin-4-yl)methyl)piperazin-1-yl)propyl)amino)-9H-purin-9-yl)cyclobutyl)-6-methylpicolinamide], in experiment [1], the “Enzyme degradation CDK9 (% remaining) @ 0.1 μM” value is given as 0/0/0%, the “Enzyme degradation CDK9 (% remaining) @ 1 μM” value was 0/0/0% and the “Enzyme degradation CDK9 (% remaining) @ 10 μM” value is recorded as 0/0/0%. In addition, in experiment [2], the “Enzyme degradation CDK2 (% remaining) @ 0.1 μM” value is 80%, the “Enzyme degradation CDK2 (% remaining) @ 1 μM” value is recorded as 50% and the “Enzyme degradation CDK2 (% remaining) @ 10 μM” value is on record as 100%.
On to `Cc1cccc(C(=O)NC2CC(n3cnc4c(NCCCN5CCN(CC6CCN(C(=O)COc7ccc8c(c7)C(=O)N([C@@H]7CCC(=O)NC7=O)C8=O)CC6)CC5)ncnc43)C2)n1` (stereo partly drawn) [Compound 144, N-((1r,3r)-3-(6-((3-(4-((1-(2-((2-(2,6-dioxopiperidin-3-yl)-1,3-dioxoisoindolin-5-yl)oxy)acetyl)piperidin-4-yl)methyl)piperazin-1-yl)propyl)amino)-9H-purin-9-yl)cyclobutyl)-6-methylpicolinamide], for which, in experiment [1], the “Enzyme degradation CDK9 (% remaining) @ 0.1 μM” value is on record as 80%, the “Enzyme degradation CDK9 (% remaining) @ 1 μM” value worked out at 10% and the “Enzyme degradation CDK9 (% remaining) @ 10 μM” value is recorded as 0%. For the same molecule, in experiment [2], the “Enzyme degradation CDK2 (% remaining) @ 0.1 μM” value came out at 100%, the “Enzyme degradation CDK2 (% remaining) @ 1 μM” value came out at 70% and the “Enzyme degradation CDK2 (% remaining) @ 10 μM” value was determined as 70%.
Regarding `Cc1cccc(C(=O)NC2CC(n3cnc4c(NCCCN5CCN(CC6CCN(C(=O)CNc7ccc8c(c7)C(=O)N([C@@H]7CCC(=O)NC7=O)C8=O)CC6)CC5)ncnc43)C2)n1` (stereo partly drawn) [Compound 145, N-((1r,3r)-3-(6-((3-(4-((1-((2-(2,6-dioxopiperidin-3-yl)-1,3-dioxoisoindolin-5-yl)glycyl)piperidin-4-yl)methyl)piperazin-1-yl)propyl)amino)-9H-purin-9-yl)cyclobutyl)-6-methylpicolinamide], in experiment [1], the “Enzyme degradation CDK9 (% remaining) @ 0.1 μM” value was 0/0/0%, the “Enzyme degradation CDK9 (% remaining) @ 1 μM” value is 0/0/0% and the “Enzyme degradation CDK9 (% remaining) @ 10 μM” value is given as 0/0/0%. Besides, in experiment [2], the “Enzyme degradation CDK2 (% remaining) @ 0.1 μM” value came to 30%, the “Enzyme degradation CDK2 (% remaining) @ 1 μM” value is 50% and the “Enzyme degradation CDK2 (% remaining) @ 10 μM” value turned out to be 50%.
As to `Cc1cccc(C(=O)NC2CC(n3cnc4c(NCc5ccc(N6CCN(C(=O)CNc7cccc8c7C(=O)N([C@H]7CCC(=O)NC7=O)C8=O)CC6)cc5)ncnc43)C2)n1` (stereo partly drawn) [Compound 148, N-((1s,3s)-3-(6-((4-(4-((2-(2,6-dioxopiperidin-3-yl)-1,3-dioxoisoindolin-4-yl)glycyl)piperazin-1-yl)benzyl)amino)-9H-purin-9-yl)cyclobutyl)-6-methylpicolinamide], in experiment [1], the “Enzyme degradation CDK9 (% remaining) @ 0.1 μM” value was found to be 10%, the “Enzyme degradation CDK9 (% remaining) @ 1 μM” value was 0% and the “Enzyme degradation CDK9 (% remaining) @ 10 μM” value is recorded as 0%. In experiment [2], the “Enzyme degradation CDK2 (% remaining) @ 0.1 μM” value worked out at 40%, the “Enzyme degradation CDK2 (% remaining) @ 1 μM” value came out at 50% and the “Enzyme degradation CDK2 (% remaining) @ 10 μM” value was 60%.
On to `Cc1cccc(C(=O)N[C@H]2C[C@@H](n3cnc4c(NCc5ccc(N6CCN(C(=O)CNc7ccc8c(c7)C(=O)N([C@H]7CCC(=O)NC7=O)C8=O)CC6)cc5)ncnc43)C2)n1` [Compound 149, N-((1s,3s)-3-(6-((4-(4-((2-(2,6-dioxopiperidin-3-yl)-1,3-dioxoisoindolin-5-yl)glycyl)piperazin-1-yl)benzyl)amino)-9H-purin-9-yl)cyclobutyl)-6-methylpicolinamide], for which, in experiment [1], the “Enzyme degradation CDK9 (% remaining) @ 0.1 μM” value is on record as 0/0/0%, the “Enzyme degradation CDK9 (% remaining) @ 1 μM” value was 0/0/0% and the “Enzyme degradation CDK9 (% remaining) @ 10 μM” value is given as 0/0/0%. Moreover, in experiment [2], the “Enzyme degradation CDK2 (% remaining) @ 0.1 μM” value is 10%, the “Enzyme degradation CDK2 (% remaining) @ 1 μM” value is reported as 20% and the “Enzyme degradation CDK2 (% remaining) @ 10 μM” value amounted to 20%.
With `Cc1cccc(C(=O)NC2CC(n3cnc4c(NCc5ccc(N6CCN(CC7CCN(c8cccc9c8C(=O)N([C@H]8CCC(=O)NC8=O)C9=O)CC7)CC6)cc5)ncnc43)C2)n1` (stereo partly drawn) [Compound 150, N-((1s,3s)-3-(6-((4-(4-((1-(2-(2,6-dioxopiperidin-3-yl)-1,3-dioxoisoindolin-4-yl)piperidin-4-yl)methyl)piperazin-1-yl)benzyl)amino)-9H-purin-9-yl)cyclobutyl)-6-methylpicolinamide], in experiment [1], the “Enzyme degradation CDK9 (% remaining) @ 0.1 μM” value was found to be 20%, the “Enzyme degradation CDK9 (% remaining) @ 1 μM” value was found to be 10% and the “Enzyme degradation CDK9 (% remaining) @ 10 μM” value is reported as 0%. Besides, in experiment [2], the “Enzyme degradation CDK2 (% remaining) @ 0.1 μM” value was 70%, the “Enzyme degradation CDK2 (% remaining) @ 1 μM” value is reported as 80% and the “Enzyme degradation CDK2 (% remaining) @ 10 μM” value is listed as 80%.
As for `Cc1cccc(C(=O)N[C@H]2C[C@@H](n3cnc4c(NCc5ccc(N6CCN(CC7CCN(c8ccc9c(c8)C(=O)N([C@H]8CCC(=O)NC8=O)C9=O)CC7)CC6)cc5)ncnc43)C2)n1` [Compound 151, N-((1s,3s)-3-(6-((4-(4-((1-(2-(2,6-dioxopiperidin-3-yl)-1,3-dioxoisoindolin-5-yl)piperidin-4-yl)methyl)piperazin-1-yl)benzyl)amino)-9H-purin-9-yl)cyclobutyl)-6-methylpicolinamide], in experiment [1], the “Enzyme degradation CDK9 (% remaining) @ 0.1 μM” value is 0/0/0%, the “Enzyme degradation CDK9 (% remaining) @ 1 μM” value is listed as 0/0/0% and the “Enzyme degradation CDK9 (% remaining) @ 10 μM” value was 0/0/0%. In addition, in experiment [2], the “Enzyme degradation CDK2 (% remaining) @ 0.1 μM” value was 30%, the “Enzyme degradation CDK2 (% remaining) @ 1 μM” value turned out to be 10% and the “Enzyme degradation CDK2 (% remaining) @ 10 μM” value came out at 10%.
In the case of `Cc1cccc(C(=O)NC2CC(n3cnc4c(NCc5ccc(N6CCN(CC7CCN(C(=O)CNc8cccc9c8C(=O)N([C@H]8CCC(=O)NC8=O)C9=O)CC7)CC6)cc5)ncnc43)C2)n1` (stereo partly drawn) [Compound 152, N-((1s,3s)-3-(6-((4-(4-((1-((2-(2,6-dioxopiperidin-3-yl)-1,3-dioxoisoindolin-4-yl)glycyl)piperidin-4-yl)methyl)piperazin-1-yl)benzyl)amino)-9H-purin-9-yl)cyclobutyl)-6-methylpicolinamide], in experiment [1], the “Enzyme degradation CDK9 (% remaining) @ 0.1 μM” value was 0/0/0%, the “Enzyme degradation CDK9 (% remaining) @ 1 μM” value is 0/0/0% and the “Enzyme degradation CDK9 (% remaining) @ 10 μM” value is 0/0/0%. In experiment [2], the “Enzyme degradation CDK2 (% remaining) @ 0.1 μM” value was 10/10/10%, the “Enzyme degradation CDK2 (% remaining) @ 1 μM” value is given as 10/10/10% and the “Enzyme degradation CDK2 (% remaining) @ 10 μM” value is 10/10/10%.
